{"source": "ChEMBL document CHEMBL5614381", "about": "“Farnesyl pyrophosphate synthase inhibitors with antiosteoporosis efficacy in ovariectomized rats: A mixed binding approach beyond bisphosphonates” (Eur J Med Chem, 2024)", "key": {"Rattus norvegicus [1]": {"tested_on": "Rattus norvegicus", "test": "Anti-osteoporosis activity against ovariectomized Wistar rat assessed as inhibition of ovariectomy-induced osteoporosis by measuring decrease in bone-specific isoenzyme of alkaline phosphatase level in serum at 10 mg/kg, po administered daily for 8 weeks following bilateral ovariectomy relative to control", "type": "functional", "conditions": "1344 h"}, "Rattus norvegicus [2]": {"tested_on": "Rattus norvegicus", "test": "Anti-osteoporosis activity against ovariectomized Wistar rat assessed as inhibition of ovariectomy-induced osteoporosis by measuring reduction in serum RANKL level at 0.1 to 10 mg/kg, po administered daily for 8 weeks following bilateral ovariectomy", "type": "functional, organism-based", "conditions": "dose 0.1-10 mg/kg"}, "Rattus norvegicus [3]": {"tested_on": "Rattus norvegicus", "test": "Anti-osteoporosis activity against ovariectomized Wistar rat assessed as inhibition of ovariectomy-induced osteoporosis by measuring increase in serum OPG level at 10 mg/kg, po administered daily for 8 weeks following bilateral ovariectomy relative to ovariectomized control", "type": "functional", "set-up": "scale not given: the % may be the effect or the level left"}, "[4]": {"target": "T1, Farnesyl pyrophosphate synthase (Homo sapiens, UniProt P14324)", "T1 sequence (P14324 whole entry)": "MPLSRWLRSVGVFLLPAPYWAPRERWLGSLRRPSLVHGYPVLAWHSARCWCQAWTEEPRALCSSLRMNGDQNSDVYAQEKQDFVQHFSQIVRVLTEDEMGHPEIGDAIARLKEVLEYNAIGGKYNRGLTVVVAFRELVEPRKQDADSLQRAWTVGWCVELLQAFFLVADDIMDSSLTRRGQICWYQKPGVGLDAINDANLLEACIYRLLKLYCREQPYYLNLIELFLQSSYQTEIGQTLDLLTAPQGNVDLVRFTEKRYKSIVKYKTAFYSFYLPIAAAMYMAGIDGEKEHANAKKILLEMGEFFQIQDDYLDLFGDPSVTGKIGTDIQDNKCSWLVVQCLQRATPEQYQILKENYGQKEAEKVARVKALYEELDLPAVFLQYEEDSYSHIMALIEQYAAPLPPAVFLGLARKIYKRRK", "test": "Inhibition of human recombinant FPPS using IPP as substrate preincubated with enzyme for 15 mins followed by substrate addition and measured after 1 hr"}, "Rattus norvegicus [5]": {"tested_on": "Rattus norvegicus", "test": "Anti-osteoporosis activity against ovariectomized Wistar rat assessed as inhibition of ovariectomy-induced osteoporosis by measuring fold increase in serum osteoclacin level at 1 to 10 mg/kg, po administered daily for 8 weeks following bilateral ovariectomy relative to ovariectomized control", "type": "functional", "conditions": "dose 1-10 mg/kg"}, "Rattus norvegicus [6]": {"tested_on": "Rattus norvegicus", "test": "Anti-osteoporosis activity against ovariectomized Wistar rat assessed as inhibition of ovariectomy-induced osteoporosis by measuring decrease in urinary calcium level at 1 mg/kg, po administered daily for 8 weeks following bilateral ovariectomy", "type": "functional, organism-based"}, "Rattus norvegicus [7]": {"tested_on": "Rattus norvegicus", "test": "Anti-osteoporosis activity against ovariectomized Wistar rat assessed as inhibition of ovariectomy-induced osteoporosis by measuring decrease in urinary phosphate level at 0.1 to 10 mg/kg, po administered daily for 8 weeks following bilateral ovariectomy", "type": "functional, organism-based", "conditions": "dose 0.1-10 mg/kg"}, "Rattus norvegicus [8]": {"tested_on": "Rattus norvegicus", "test": "Anti-osteoporosis activity against ovariectomized Wistar rat assessed as inhibition of ovariectomy-induced osteoporosis by measuring serum estradiol level at 0.1 to 10 mg/kg, po administered daily for 8 weeks following bilateral ovariectomy", "type": "functional, organism-based", "conditions": "dose 0.1-10 mg/kg"}, "Rattus norvegicus [9]": {"tested_on": "Rattus norvegicus", "test": "Anti-osteoporosis activity against ovariectomized Wistar rat assessed as inhibition of ovariectomy-induced osteoporosis by measuring reduction in serum RANKL/OPG level at 10 mg/kg, po administered daily for 8 weeks following bilateral ovariectomy relative to ovariectomized control", "type": "functional", "conditions": "1344 h"}, "Rattus norvegicus [10]": {"tested_on": "Rattus norvegicus", "test": "Anti-osteoporosis activity against ovariectomized Wistar rat assessed as inhibition of ovariectomy-induced osteoporosis by measuring increase in bone mineral density at 1 mg/kg, po administered daily for 8 weeks following bilateral ovariectomy", "type": "functional, organism-based"}, "Rattus norvegicus [11]": {"tested_on": "Rattus norvegicus", "test": "Anti-osteoporosis activity against ovariectomized Wistar rat assessed as inhibition of ovariectomy-induced osteoporosis by measuring increase in bone mineral content at 10 mg/kg, po administered daily for 8 weeks following bilateral ovariectomy", "type": "functional, organism-based"}, "Rattus norvegicus [12]": {"tested_on": "Rattus norvegicus", "test": "Anti-osteoporosis activity against ovariectomized Wistar rat assessed as inhibition of ovariectomy-induced osteoporosis by measuring decrease in serum phosphate level at 1 mg/kg, po administered daily for 8 weeks following bilateral ovariectomy", "type": "functional, organism-based"}, "Rattus norvegicus [13]": {"tested_on": "Rattus norvegicus", "test": "Anti-osteoporosis activity against ovariectomized Wistar rat assessed as inhibition of ovariectomy-induced osteoporosis by measuring reduction in serum RANKL level at 7.5 ug/kg, ip administered once a week for 8 weeks following bilateral ovariectomy", "type": "functional, organism-based", "conditions": "dose 7.5 µg/kg"}, "Rattus norvegicus [14]": {"tested_on": "Rattus norvegicus", "test": "Anti-osteoporosis activity against ovariectomized Wistar rat assessed as inhibition of ovariectomy-induced osteoporosis by measuring reduction in serum RANKL/OPG level at 7.5 ug/kg, ip administered once a week for 8 weeks following bilateral ovariectomy relative to ovariectomized control", "type": "functional", "conditions": "1344 h, dose 7.5 µg/kg"}, "Rattus norvegicus [15]": {"tested_on": "Rattus norvegicus", "test": "Anti-osteoporosis activity against ovariectomized Wistar rat assessed as inhibition of ovariectomy-induced osteoporosis by measuring decrease in urinary calcium level at 7.5 ug/kg, ip administered once a week for 8 weeks following bilateral ovariectomy", "type": "functional, organism-based", "conditions": "dose 7.5 µg/kg"}, "Rattus norvegicus [16]": {"tested_on": "Rattus norvegicus", "test": "Anti-osteoporosis activity against ovariectomized Wistar rat assessed as inhibition of ovariectomy-induced osteoporosis by measuring decrease in bone-specific isoenzyme of alkaline phosphatase level in serum at 7.5 ug/kg, ip administered once a week for 8 weeks following bilateral ovariectomy", "type": "functional, organism-based", "conditions": "dose 7.5 µg/kg"}, "Rattus norvegicus [17]": {"tested_on": "Rattus norvegicus", "test": "Anti-osteoporosis activity against ovariectomized Wistar rat assessed as inhibition of ovariectomy-induced osteoporosis by measuring increase in serum OPG level at 7.5 ug/kg, ip administered once a week for 8 weeks following bilateral ovariectomy relative to ovariectomized control", "type": "functional", "set-up": "scale not given: the % may be the effect or the level left", "conditions": "dose 7.5 µg/kg"}, "Rattus norvegicus [18]": {"tested_on": "Rattus norvegicus", "test": "Anti-osteoporosis activity against ovariectomized Wistar rat assessed as inhibition of ovariectomy-induced osteoporosis by measuring decrease in serum phosphate level at 7.5 ug/kg, ip administered once a week for 8 weeks following bilateral ovariectomy", "type": "functional, organism-based", "conditions": "dose 7.5 µg/kg"}, "Rattus norvegicus [19]": {"tested_on": "Rattus norvegicus", "test": "Anti-osteoporosis activity against ovariectomized Wistar rat assessed as inhibition of ovariectomy-induced osteoporosis by measuring decrease in serum calcium level at 7.5 ug/kg, ip administered once a week for 8 weeks following bilateral ovariectomy", "type": "functional, organism-based", "conditions": "dose 7.5 µg/kg"}, "Rattus norvegicus [20]": {"tested_on": "Rattus norvegicus", "test": "Anti-osteoporosis activity against ovariectomized Wistar rat assessed as inhibition of ovariectomy-induced osteoporosis by measuring serum estradiol level at 7.5 ug/kg, ip administered once a week for 8 weeks following bilateral ovariectomy", "type": "functional, organism-based", "conditions": "dose 7.5 µg/kg"}, "Rattus norvegicus [21]": {"tested_on": "Rattus norvegicus", "test": "Anti-osteoporosis activity against ovariectomized Wistar rat assessed as inhibition of ovariectomy-induced osteoporosis by measuring increase in serum osteoclacin level at 7.5 ug/kg, ip administered once a week for 8 weeks following bilateral ovariectomy relative to ovariectomized control", "type": "functional", "set-up": "scale not given: the % may be the effect or the level left", "conditions": "dose 7.5 µg/kg"}, "Rattus norvegicus [22]": {"tested_on": "Rattus norvegicus", "test": "Anti-osteoporosis activity against ovariectomized Wistar rat assessed as inhibition of ovariectomy-induced osteoporosis by measuring decrease in urinary phosphate level at 7.5 ug/kg, ip administered once a week for 8 weeks following bilateral ovariectomy", "type": "functional, organism-based", "conditions": "dose 7.5 µg/kg"}}, "note": "The source made the active and inactive calls. The calls are words filed in the database; no cut-off is given here."}
{"smiles": "COc1cc(/C=C/C(C)=O)ccc1OCCOc1ccc(/C=C/C(C)=O)cc1OC", "values": [{"measurement": "inhibition in vivo at 10 mg/kg", "setting": "Rattus norvegicus [1]", "result": 33, "unit": "%"}, {"measurement": "Activity", "setting": "Rattus norvegicus [2]", "result": "inactive"}, {"measurement": "Activity", "setting": "Rattus norvegicus [3]", "result": 29, "unit": "%"}, {"measurement": "IC50", "setting": "[4]", "result": 1.11, "unit": "µM"}, {"measurement": "fold change (FC)", "setting": "Rattus norvegicus [5]", "result": 2}, {"measurement": "Activity", "setting": "Rattus norvegicus [6]", "result": "Active"}, {"measurement": "Activity", "setting": "Rattus norvegicus [7]", "result": "Active"}, {"measurement": "Activity", "setting": "Rattus norvegicus [8]", "result": "inactive"}, {"measurement": "inhibition in vivo at 10 mg/kg", "setting": "Rattus norvegicus [9]", "result": 33.3, "unit": "%"}, {"measurement": "Activity", "setting": "Rattus norvegicus [10]", "result": "Active"}, {"measurement": "Activity", "setting": "Rattus norvegicus [11]", "result": "Active"}, {"measurement": "Activity", "setting": "Rattus norvegicus [12]", "result": "Active"}]}
{"smiles": "COC(=O)/C=C/c1ccc(OCCOc2ccc(/C=C/C(=O)OC)cc2OC)c(OC)c1", "values": [{"measurement": "IC50", "setting": "[4]", "result": 1.24, "unit": "µM"}]}
{"smiles": "COc1cc(C=S)ccc1OCCOc1ccc(C=S)cc1OC", "values": [{"measurement": "IC50", "setting": "[4]", "result": 22.7, "unit": "µM"}]}
{"smiles": "COc1cc(C(O)P(=O)(OC)OC)ccc1OCCOc1ccc(C(O)P(=O)(OC)OC)cc1OC", "note": "(stereo unspecified)", "values": [{"measurement": "IC50", "setting": "[4]", "result": 21.4, "unit": "µM"}]}
{"smiles": "CCOC(=O)/C=C/c1ccc(OCCOc2ccc(/C=C/C(=O)OCC)cc2OC)c(OC)c1", "values": [{"measurement": "IC50", "setting": "[4]", "result": 5.98, "unit": "µM"}]}
{"smiles": "COc1cc(C(O)P(=O)(N(C)C)N(C)C)ccc1OCCOc1ccc(C(O)P(=O)(N(C)C)N(C)C)cc1OC", "note": "(stereo unspecified)", "values": [{"measurement": "IC50", "setting": "[4]", "result": 5.54, "unit": "µM"}]}
{"smiles": "CCN(CC)P(=O)(C(O)c1ccc(OCCOc2ccc(C(O)P(=O)(N(CC)CC)N(CC)CC)cc2OC)c(OC)c1)N(CC)CC", "note": "(stereo unspecified)", "values": [{"measurement": "IC50", "setting": "[4]", "result": 2.47, "unit": "µM"}]}
{"smiles": "COc1cc(C=O)ccc1OCCOc1ccc(C=O)cc1OC", "values": [{"measurement": "IC50", "setting": "[4]", "result": 12.6, "unit": "µM"}]}
{"smiles": "COc1cc(C2SP(=S)(Sc3ccccc3)S2)ccc1OCCOc1ccc(C2SP(=S)(Sc3ccccc3)S2)cc1OC", "note": "(stereo unspecified)", "values": [{"measurement": "IC50", "setting": "[4]", "result": 3.37, "unit": "µM"}]}
{"smiles": "O=P(O)(O)C(O)(Cn1ccnc1)P(=O)(O)O", "note": "[ZOLEDRONIC ACID ANHYDROUS]", "values": [{"measurement": "Activity", "setting": "Rattus norvegicus [13]", "result": "inactive"}, {"measurement": "inhibition in vivo at 0.0075 mg/kg", "setting": "Rattus norvegicus [14]", "result": 38, "unit": "%"}, {"measurement": "Activity", "setting": "Rattus norvegicus [15]", "result": "inactive"}, {"measurement": "Activity", "setting": "Rattus norvegicus [16]", "result": "Active"}, {"measurement": "Activity", "setting": "Rattus norvegicus [17]", "result": 46, "unit": "%"}, {"measurement": "Activity", "setting": "Rattus norvegicus [18]", "result": "Active"}, {"measurement": "Activity", "setting": "Rattus norvegicus [19]", "result": "Active"}, {"measurement": "Activity", "setting": "Rattus norvegicus [20]", "result": "inactive"}, {"measurement": "Activity", "setting": "Rattus norvegicus [21]", "result": 174, "unit": "%"}, {"measurement": "Activity", "setting": "Rattus norvegicus [22]", "result": "Active"}]}
{"smiles": "COc1cc(/C=C/C#N)ccc1OCCOc1ccc(/C=C/C#N)cc1OC", "values": [{"measurement": "IC50", "setting": "[4]", "result": 3.22, "unit": "µM"}]}
